Square brackets hold non-standard residues; d marks the D form. Peptide text beside a SMILES is read from it. * marks the point of attachment. X1 = CC(C)(O/N=C(\C(=O)N[C@@H]1C(=O)N2C(C(=O)[O-])=C(C[n+]3ccccc3)CS[C@H]12)c1csc(N)n1)C(=O)NCCCCCCN1C(=O)CC(*)C1=O; X2 = C[C@H]1[C@H](NC(=O)/C(=N\OC(C)(C)C(=O)NCCCCCCN2C(=O)CC(*)C2=O)c2csc(N)n2)C(=O)N1S(=O)(=O)O

The test system of one experiment is B. subtilis DSM 10. Put plainly: microbe, parasite or virus in culture. It is filed as cell-based. To be noted: B. subtilis DSM 10; median (n = 3). The protocol: The minimum inhibitory concentration (MIC) of the β‐lactam–peptide conjugates was determined by broth microdilution as previously described.^[ [17] ^] Briefly, in cation‐adjusted MHB II medium, a twofold serial dilution of the compounds was prepared in 96‐well round‐bottom polystyrene or polypropylene microtiter plates with each well containing 50 µL. The plates were inoculated with 50 µL bacterial suspension and the final inoculum, in a total volume of 100 µL, contained 5 × 10^5 CFU mL^−1. The microplates were incubated for 20 h at 37 ± 1 °C. The lowest concentration preventing visible bacterial growth was considered the MIC value. For susceptibility testing of combinations of β‐lactamase‐inhibitors with either a β‐lactam antibiotic or a β‐lactam–peptide conjugate, fixed concentrations of the inhibitors according to the EUCAST (European Committee on Antimicrobial Susceptibility Testing) guidelines (clavulanic acid = 2 mg L^−1, avibactam = 4 mg L^−1) were used.
With `C[C@H]1[C@H](NC(=O)/C(=N\OC(C)(C)C(=O)NCCCCCCN2C(=O)CC(SC[C@H](NC(=O)[C@H](CCCNC(=N)N)NC(=O)[C@H](CCCNC(=N)N)NC(=O)[C@H](CCCNC(=N)N)NC(=O)[C@H](CCCNC(=N)N)NC(=O)[C@H](CCCNC(=N)N)NC(=O)[C@H](CCCNC(=N)N)NC(=O)[C@H](N)Cc3ccc(O)cc3)C(N)=O)C2=O)c2csc(N)n2)C(=O)N1S(=O)(=O)O` (stereo partly shown) [AZT-yR6] (H-[dY]RRRRRRC(X2)-NH2; N-terminus assumed), the MIC amounted to 1 µg/mL.

The experiment is the same for the next values; noted with them: DSM 10, 20 h.
For the compound `CC1(C)S[C@@H]2[C@H](NC(=O)[C@H](NC(=O)C3CCC(CN4C(=O)CC(SC[C@H](NC(=O)[C@H](CCCNC(=N)N)NC(=O)[C@H](CCCNC(=N)N)NC(=O)[C@H](CCCNC(=N)N)NC(=O)[C@H](CCCNC(=N)N)NC(=O)[C@H](CCCNC(=N)N)NC(=O)[C@@H](N)CCCNC(=N)N)C(N)=O)C4=O)CC3)c3ccc(O)cc3)C(=O)N2[C@H]1C(=O)O` (stereo partly shown) [AMO-R6], the MIC was 0.06 µg/mL.

Regarding `C[C@H]1[C@H](NC(=O)/C(=N\OC(C)(C)C(=O)NCCCCCCN2C(=O)CC(SC[C@H](NC(=O)[C@H](CCCNC(=N)N)NC(=O)CNC(=O)[C@H](CCCNC(=N)N)NC(=O)CNC(=O)[C@H](CCCNC(=N)N)NC(=O)CN)C(N)=O)C2=O)c2csc(N)n2)C(=O)N1S(=O)(=O)O` (stereo partly shown) [AZT-(GR)3] (H-GRGRGRC(X2)-NH2; N-terminus assumed), the MIC came to 1 µg/mL.

With `C[C@H]1[C@H](NC(=O)/C(=N\OC(C)(C)C(=O)NCCCCCCN2C(=O)CC(SC[C@H](NC(=O)[C@H](CCCNC(=N)N)NC(=O)[C@H](CCCCN)NC(=O)[C@H](CCCNC(=N)N)NC(=O)[C@H](CCCCN)NC(=O)[C@H](CCCNC(=N)N)NC(=O)[C@@H](N)CCCCN)C(N)=O)C2=O)c2csc(N)n2)C(=O)N1S(=O)(=O)O` (stereo partly shown) [AZT-(KR)3] (H-KRKRKRC(X2)-NH2; N-terminus assumed), the MIC came to 0.06 µg/mL.

Regarding `C[C@H]1[C@H](NC(=O)/C(=N\OC(C)(C)C(=O)NCCCCCCN2C(=O)CC(SC[C@H](NC(=O)[C@H](CCC(=O)O)NC(=O)[C@H](CCC(=O)O)NC(=O)[C@H](CCC(=O)O)NC(=O)[C@H](CCC(=O)O)NC(=O)[C@H](CCC(=O)O)NC(=O)[C@@H](N)CCC(=O)O)C(N)=O)C2=O)c2csc(N)n2)C(=O)N1S(=O)(=O)O` (stereo partly shown) [AZT-E6], the MIC is more than 64 µg/mL.

Regarding `C[C@H]1[C@H](NC(=O)/C(=N\OC(C)(C)C(=O)NCCCCCCN2C(=O)CC(SC[C@H](NC(=O)CNC(=O)CNC(=O)CNC(=O)CNC(=O)CNC(=O)CN)C(N)=O)C2=O)c2csc(N)n2)C(=O)N1S(=O)(=O)O` (stereo partly shown) [AZT-G6] (H-GGGGGGC(X2)-NH2; N-terminus assumed), the MIC worked out at 64 µg/mL.

As to `C[C@H]1[C@H](NC(=O)/C(=N\OC(C)(C)C(=O)NCCCCCCN2C(=O)CC(SC[C@H](NC(=O)[C@@H](N)CCCCN)C(N)=O)C2=O)c2csc(N)n2)C(=O)N1S(=O)(=O)O` (stereo partly shown) [AZT-K1], the MIC was 16 µg/mL.

Take `C[C@H]1[C@H](NC(=O)/C(=N\OC(C)(C)C(=O)NCCCCCCN2C(=O)CC(SC[C@H](NC(=O)[C@H](CCCCN)NC(=O)[C@H](CCCCN)NC(=O)[C@@H](N)CCCCN)C(N)=O)C2=O)c2csc(N)n2)C(=O)N1S(=O)(=O)O` (stereo partly shown) [AZT-K3]: the MIC came out at 8 µg/mL.

Consider `C[C@H]1[C@H](NC(=O)/C(=N\OC(C)(C)C(=O)NCCCCCCN2C(=O)CC(SC[C@H](NC(=O)[C@H](CCCCN)NC(=O)[C@H](CCCCN)NC(=O)[C@H](CCCCN)NC(=O)[C@H](CCCCN)NC(=O)[C@H](CCCCN)NC(=O)[C@@H](N)CCCCN)C(N)=O)C2=O)c2csc(N)n2)C(=O)N1S(=O)(=O)O` (stereo partly shown) [AZT-K6] (H-KKKKKKC(X2)-NH2; N-terminus assumed), for which the MIC stood at 0.25 µg/mL.

Regarding `C[C@H]1[C@H](NC(=O)/C(=N\OC(C)(C)C(=O)NCCCCCCN2C(=O)CC(SC[C@H](NC(=O)[C@H](CCCCN)NC(=O)[C@H](CCCCN)NC(=O)[C@H](CCCCN)NC(=O)[C@H](CCCCN)NC(=O)[C@H](CCCCN)NC(=O)[C@H](CCCCN)NC(=O)[C@H](CCCCN)NC(=O)[C@H](CCCCN)NC(=O)[C@@H](N)CCCCN)C(N)=O)C2=O)c2csc(N)n2)C(=O)N1S(=O)(=O)O` (stereo partly shown) [AZT-K9] (H-KKKKKKKKKC(X2)-NH2; N-terminus assumed), the MIC amounted to 0.1 µg/mL.

For the compound `C[C@H]1[C@H](NC(=O)/C(=N\OC(C)(C)C(=O)NCCCCCCN2C(=O)CC(SC[C@H](NC(=O)[C@H](CCCCN)NC(=O)[C@H](CCCCN)NC(=O)[C@H](CCCCN)NC(=O)[C@H](CCCCN)NC(=O)[C@H](CCCCN)NC(=O)[C@H](CCCCN)NC(=O)[C@H](CCCCN)NC(=O)[C@H](CCCCN)NC(=O)[C@H](CCCCN)NC(=O)[C@H](CCCCN)NC(=O)[C@H](CCCCN)NC(=O)[C@@H](N)CCCCN)C(N)=O)C2=O)c2csc(N)n2)C(=O)N1S(=O)(=O)O` (stereo partly shown) [AZT-K12] (H-KKKKKKKKKKKKC(X2)-NH2; N-terminus assumed), the MIC came to 0.06 µg/mL.

`C[C@H]1[C@H](NC(=O)/C(=N\OC(C)(C)C(=O)NCCCCCCN2C(=O)CC(SC[C@H](NC(=O)[C@@H](N)CCCNC(=N)N)C(N)=O)C2=O)c2csc(N)n2)C(=O)N1S(=O)(=O)O` (stereo partly shown) [AZT-R1]: the MIC was determined as 16 µg/mL.

Turning to `C[C@H]1[C@H](NC(=O)/C(=N\OC(C)(C)C(=O)NCCCCCCN2C(=O)CC(SC[C@H](NC(=O)[C@H](CCCCN)NC(=O)[C@H](CCCCN)NC(=O)[C@H](CCCCN)NC(=O)[C@H](CCCNC(=N)N)NC(=O)[C@H](CCCNC(=N)N)NC(=O)[C@@H](N)CCCNC(=N)N)C(N)=O)C2=O)c2csc(N)n2)C(=O)N1S(=O)(=O)O` (stereo partly shown) [AZT-R3K3] (H-RRRKKKC(X2)-NH2; N-terminus assumed), the MIC is 0.06 µg/mL.

In the case of `C[C@H]1[C@H](NC(=O)/C(=N\OC(C)(C)C(=O)NCCCCCCN2C(=O)CC(SC[C@H](NC(=O)[C@H](CCCNC(=N)N)NC(=O)[C@H](CCCNC(=N)N)NC(=O)[C@@H](N)CCCNC(=N)N)C(N)=O)C2=O)c2csc(N)n2)C(=O)N1S(=O)(=O)O` (stereo partly shown) [AZT-R3], the MIC was 1 µg/mL.

Regarding `C[C@H]1[C@H](NC(=O)/C(=N\OC(C)(C)C(=O)NCCCCCCN2C(=O)CC(SC[C@H](NC(=O)[C@H](CCCNC(=N)N)NC(=O)[C@H](CCCNC(=N)N)NC(=O)[C@H](CCCNC(=N)N)NC(=O)[C@H](CCCNC(=N)N)NC(=O)[C@H](CCCNC(=N)N)NC(=O)[C@H](CCCNC(=N)N)NC(=O)[C@H](CCCNC(=N)N)NC(=O)[C@H](CCCNC(=N)N)NC(=O)[C@@H](N)CCCNC(=N)N)C(N)=O)C2=O)c2csc(N)n2)C(=O)N1S(=O)(=O)O` (stereo partly shown) [AZT-R9], the MIC was 0.5 µg/mL.

In the case of `C[C@H]1[C@H](NC(=O)/C(=N\OC(C)(C)C(=O)NCCCCCCN2C(=O)CC(SC[C@H](NC(=O)[C@H](CCCNC(=N)N)NC(=O)[C@H](CCCNC(=N)N)NC(=O)[C@H](CCCNC(=N)N)NC(=O)[C@H](CCCNC(=N)N)NC(=O)[C@H](CCCNC(=N)N)NC(=O)[C@H](CCCNC(=N)N)NC(=O)[C@H](CCCNC(=N)N)NC(=O)[C@H](CCCNC(=N)N)NC(=O)[C@H](CCCNC(=N)N)NC(=O)[C@H](CCCNC(=N)N)NC(=O)[C@H](CCCNC(=N)N)NC(=O)[C@@H](N)CCCNC(=N)N)C(N)=O)C2=O)c2csc(N)n2)C(=O)N1S(=O)(=O)O` (stereo partly shown) [AZT-R12], the MIC came out at 1 µg/mL.

For `CC(C)(O/N=C(\C(=O)N[C@@H]1C(=O)N2C(C(=O)[O-])=C(C[n+]3ccccc3)CS[C@H]12)c1csc(N)n1)C(=O)NCCCCCCN1C(=O)CC(SC[C@H](NC(=O)[C@H](CCCNC(=N)N)NC(=O)CNC(=O)[C@H](CCCNC(=N)N)NC(=O)CNC(=O)[C@H](CCCNC(=N)N)NC(=O)CN)C(N)=O)C1=O` (stereo partly shown) [CTZ-(GR)3] (H-GRGRGRC(X1)-NH2; N-terminus assumed), the MIC came to 0.06 µg/mL.

In the case of `CC(C)(O/N=C(\C(=O)N[C@@H]1C(=O)N2C(C(=O)[O-])=C(C[n+]3ccccc3)CS[C@H]12)c1csc(N)n1)C(=O)NCCCCCCN1C(=O)CC(SC[C@H](NC(=O)[C@H](CCCNC(=N)N)NC(=O)[C@H](CCCCN)NC(=O)[C@H](CCCNC(=N)N)NC(=O)[C@H](CCCCN)NC(=O)[C@H](CCCNC(=N)N)NC(=O)[C@@H](N)CCCCN)C(N)=O)C1=O` (stereo partly shown) [CTZ-(KR)3] (H-KRKRKRC(X1)-NH2; N-terminus assumed), the MIC turned out to be 0.008 µg/mL.

`CC(C)(O/N=C(\C(=O)N[C@@H]1C(=O)N2C(C(=O)[O-])=C(C[n+]3ccccc3)CS[C@H]12)c1csc(N)n1)C(=O)NCCCCCCN1C(=O)CC(SC[C@H](NC(=O)[C@H](CCC(=O)O)NC(=O)[C@H](CCC(=O)O)NC(=O)[C@H](CCC(=O)O)NC(=O)[C@H](CCC(=O)O)NC(=O)[C@H](CCC(=O)O)NC(=O)[C@@H](N)CCC(=O)O)C(N)=O)C1=O` (stereo partly shown) [CTZ-E6]: the MIC is more than 64 µg/mL.

Turning to `CC(C)(O/N=C(\C(=O)N[C@@H]1C(=O)N2C(C(=O)[O-])=C(C[n+]3ccccc3)CS[C@H]12)c1csc(N)n1)C(=O)NCCCCCCN1C(=O)CC(SC[C@H](NC(=O)CNC(=O)CNC(=O)CNC(=O)CNC(=O)CNC(=O)CN)C(N)=O)C1=O` (stereo partly shown) [CTZ-G6] (H-GGGGGGC(X1)-NH2; N-terminus assumed), the MIC amounted to 8 µg/mL.

For the compound `CC(C)(O/N=C(\C(=O)N[C@@H]1C(=O)N2C(C(=O)[O-])=C(C[n+]3ccccc3)CS[C@H]12)c1csc(N)n1)C(=O)NCCCCCCN1C(=O)CC(SC[C@H](NC(=O)[C@@H](N)CCCCN)C(N)=O)C1=O` (stereo partly shown) [CTZ-K1], the MIC was determined as 1 µg/mL.

As to `CC(C)(O/N=C(\C(=O)N[C@@H]1C(=O)N2C(C(=O)[O-])=C(C[n+]3ccccc3)CS[C@H]12)c1csc(N)n1)C(=O)NCCCCCCN1C(=O)CC(SC[C@H](NC(=O)[C@H](CCCCN)NC(=O)[C@H](CCCCN)NC(=O)[C@H](CCCCN)NC(=O)[C@H](CCCCN)NC(=O)[C@H](CCCCN)NC(=O)[C@H](CCCCN)NC(=O)[C@H](CCCCN)NC(=O)[C@H](CCCCN)NC(=O)[C@H](CCCCN)NC(=O)[C@H](CCCCN)NC(=O)[C@H](CCCCN)NC(=O)[C@@H](N)CCCCN)C(N)=O)C1=O` (stereo partly shown) [CTZ-K12] (H-KKKKKKKKKKKKC(X1)-NH2), the MIC turned out to be 0.02 µg/mL.

The values above are taken from paper PMC11672299, “Conjugation of Polycationic Peptides Extends the Efficacy Spectrum of β‐Lactam Antibiotics” (Advanced Science, 2024).
